How the values were obtained:
[1] = biological target: T1, Human MMP-2 catalytic domain (Homo sapiens, UniProt P08253, DEL222-396); experiment: Fluorometric MMP-2 inhibition assay (MTS), catalytic domain; format: biochemical
T1 construct: Human MMP-2 catalytic domain (residues 110-221, 397-455); made in house
Description: In vitro MMP-2 activity was then measured, using a fluorometric assay in a 384 well format. Human MMP-2 catalytic domain (residues 110-221, 397-455) (Feng et al., [2000]) was expressed in E. coli in form of inclusion bodies. The protein was refolded and then purified by means of Ni-NTA affinity and anion exchange chromatography. Inhibition assays were carried out in 50 mM Tris, 5 mM CaCl2, 300 mM NaCl, 20 μM ZnSO4, pH = 7.5 buffer. For inhibition studies the catalytic domain of the enzyme was pre-incubated with varying amount of inhibitor for 30 min. […] After 1 h incubation at 37°C the fluorescence was detected using a Wallac 1420 Victor2 microplate reader at 320 nm/405 nm Ex/Em wavelength. As an alternative substrate we also used 5-FAM-Pro-Leu-Gly-Leu-Dap(QXL™ 520)-Ala-Arg-NH2, where the fluorescence was detected at 485 nm/520 nm. For each inhibitor candidate, the percentage of inhibition was determined in duplicate experiments at six inhibitor concentrations, chosen to observe a 5–95% range of inhibition.
Since hydroxamic acids are reported as the primary zinc-binding motif, we intended to select such a library from the AMRI 200,000 member non-exclusive compound repository as a starting point of our drug discovery efforts. Since only a few compounds were available in the repository as hydroxamic acids and the conversion of acids to hydroxamic acids were not applicable to HT parallel synthesis, we decided first to select free acids from the AMRI's compound collection. […] The selected acids were screened in a fluorescent assay using a recombinant human MMP-2 catalytic fragment and a synthetic peptide substrate. […] The hydroxamic acid pairs of the previously measured acids were then tested.

MMP-1 = biological target: T2, MMP-1 (Homo sapiens, UniProt P03956); experiment: MMP-1 inhibition (inhibitory profile); format: biochemical; details: Table 2
T2 sequence (P03956 100-469): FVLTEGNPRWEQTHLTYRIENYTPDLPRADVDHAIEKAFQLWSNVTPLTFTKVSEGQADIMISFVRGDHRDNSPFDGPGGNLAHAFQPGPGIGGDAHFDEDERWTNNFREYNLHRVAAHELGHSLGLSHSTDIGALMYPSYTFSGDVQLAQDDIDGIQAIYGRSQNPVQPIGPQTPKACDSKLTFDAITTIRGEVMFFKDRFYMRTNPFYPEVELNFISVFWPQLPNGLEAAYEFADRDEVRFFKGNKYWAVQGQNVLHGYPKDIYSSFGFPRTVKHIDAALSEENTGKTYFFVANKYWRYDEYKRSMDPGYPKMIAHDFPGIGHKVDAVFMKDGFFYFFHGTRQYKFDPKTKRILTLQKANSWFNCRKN
Description: The compounds were measured for MMP-1, 2, 9, 13 to determine their inhibitory profile. Efficiency Index amplifies the two major required effects, selectivity against MMP-1 and the inhibitory activity.

isolated rat hearts = experiment: Myocardial infarct size in isolated rat heart, global ischemia/reperfusion (Langendorff); details: 1 μM; 30 min global ischemia, 120 min reperfusion; vs vehicle
Description: Our experiment conforms to the National Institutes of Health Guide for the Care and Use of Laboratory Animals (NIH Pub. No. 85-23, Revised 1996) and also to the EU directive guideline for the care and use of laboratory animals published by the European Union (2010/63/EU) and was approved by the local ethics committee of the University of Szeged. Eight to ten week-old male Wistar rats weighing 300–350 g (Toxicoop Ltd., Budapest, Hungary) were anesthetized intraperitoneally with 60 mg/kg pentobarbital sodium (Euthasol, Produlab Pharma, Raamsdonksveer, The Netherlands). After administration of 500 U/kg heparin through the femoral vein, the heart was isolated and perfused according to Langendorff with oxygenated Krebs-Henseleit buffer at 37°C as previously described (Turan et al., [2006]). […] Heart rate and coronary flow were monitored throughout the perfusion protocol. […]
At the end of the 2-h reperfusion, the right ventricle was removed, hearts were frozen, cut into six 1-mm-thick slices, and incubated in 1% triphenyl-tetrazolium chloride (Sigma-Aldrich; St. Louis, MO) at 37°C to delineate infarcted tissue. Slices were then fixed and quantified by planimetry using Infarctsize™ 2.5 software (Pharmahungary, Szeged, Hungary) (Fekete et al., [2013]). Infarct size was expressed as a percentage of the left ventricle.

T1 sequence (P08253 with tags, fused parts or gaps DEL222-396 limits assumed): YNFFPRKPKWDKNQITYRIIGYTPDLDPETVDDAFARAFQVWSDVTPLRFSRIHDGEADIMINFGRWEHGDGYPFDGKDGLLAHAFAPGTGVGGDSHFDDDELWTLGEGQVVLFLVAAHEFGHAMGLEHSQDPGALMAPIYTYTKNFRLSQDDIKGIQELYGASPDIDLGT

For O=C(O)c1c[nH]c(CN(Cc2ccc(F)cc2)Cc2ccc(OCc3ccccc3)cc2)n1 [MMPI-1154], the “selectivity over MMP-1” value ([1]; MMP-2 vs MMP-1, Table 2 values) was 1.5 fold, the IC50 ([1]; Table 2) was 6.6 µM and the IC50 (MMP-1) was 10 µM. The myocardial infarct size (isolated rat hearts) was “reduced myocardial infarct size significanly”.
